Laboratory results taken from patent US20220346650A1, “SYSTEMS AND METHODS FOR VASCULAR AND STRUCTURAL IMAGING” (priority 2019, published 2022).

What was measured:
[1] = system: Grade 4 Atypical Teratoid Rhabdoid Tumor (ATRT) in the posterior fossa/brain stem; experiment: Intraoperative NIR fluorescence imaging of tozuleristide during pediatric brain tumor resection; format: in vivo, human; settings: Subject T613, 15 mg/m2 IV bolus about 13.5 hours prior to surgery
Method: This example describes use of the imaging system and/or method disclosed herein for coaxial illumination and visualization of tozuleristide fluorescence during surgical resection of a pediatric brain tumor. The imaging system of the present invention was used to image brain tissue to detect a cancer using fluorescence imaging. Surgery was performed to remove cancer from the subject.
Subject T613 was diagnosed with a Grade 4 Atypical Teratoid Rhabdoid Tumor (ATRT) in the posterior fossa/brain stem. Tozuleristide which is a peptide-fluorophore detectable agent (15 mg/m2 dose), was given by intravenous (IV) bolus injection about 13.5 hours prior to the start of surgery. The imaging head was attached to the Zeiss Pentero surgical microscope along with two eyepieces prior the start of surgery.
After the tumor was exposed, the imaging system was initialized and used continuously. The imaging system enabled the surgeon to view fluorescence and visible imaging together and simultaneously with the operating microscope. […] Moreover, there was no need to reposition the operating microscope to view the fluorescence and visible images thus providing imaging of the surgical area together with the fluorescence imaging system during the operation, which decreased disruption to the surgical workflow.
Video was captured for the duration of the tumor resection, and still images were captured of the exposed tumor. […] FIGS. 15A-15F show images taken from the tumor resection with the near-infrared (NIR) fluorescence images of the tumor using the imaging system (FIGS. 15B and 15E) and the overlay image with the NIR fluorescence overlaid with the white light or visible light spectrum illumination (FIGS. 15C and 15F). […] In the overlay image, the normal brain tissue appeared red, as it does under normal visible light or white light as shown the visible light images of the tumor (FIGS. 15A and 15D). The surgeon noted that only tumor tissue appeared fluorescent.

[2] = system: vascular lesion in the right middle frontal gyrus; experiment: Intraoperative NIR fluorescence imaging of tozuleristide during resection of a vascular lesion (arteriovenous or cavernous malformation); format: in vivo, human; settings: for Fluorescence of surrounding tissue, normal brain tissue and normal vasculature / Fluorescence of the abnormal vascular tissue / vascular lesion: pediatric subject, 22 mg (15 mg/m^2) IV approximately 5-6 hours before surgery, NIR fluorescence; for Fluorescence of the abnormal vascular tissue / vascular lesion: in situ
Method: (§1) This example describes use of the imaging system and/or methods disclosed herein for coaxial illumination and visualization of tozuleristide fluorescence during surgical resection of an arteriovenous malformation or cavernous malformation in a pediatric patient. The imaging system of the present invention was used to image brain tissue to detect abnormal vasculature using fluorescence imaging. Surgery was performed to remove the abnormality from the subject.
A pediatric subject with a history of anosmia was found on MRI to have a 3.5 cm T1-hypointense, T2/FLAIR-hyperintense mass in the right middle frontal gyrus with a central enhancing nodule, initially diagnosed pre-operatively to be a low-grade glioma. […] The patient received 22 mg (15 mg/M^2) of tozuleristide via IV injection approximately 5-6 hours before surgery and image collection. The imaging system head was attached to the Zeiss Pentero surgical microscope along with two eyepieces prior the start of surgery.
After the lesion was exposed, the imaging system was initialized and used continuously. The imaging system enabled the surgeon to view fluorescence and visible imaging together and simultaneously with the operating microscope. A microsurgical resection was performed through a right frontal craniotomy. […] The abnormal tissue was completely resected. The patient recovered without deficit. Pathology confirmed the absence of tumor.
Video was captured for the duration of the resection, and still images were captured of the exposed lesion. […] FIGS. 18 and 19 show images taken from the vascular lesion with the near-infrared (NIR) fluorescence images of the vascular lesion using the imaging system. […] In the overlay image, the normal brain tissue and normal blood vessels appeared pink or light tan to red, as it does under normal visible light or white light. The surgeon noted that only the abnormal vascular tissue appeared fluorescent.

[3] = system: cerebral cavernous malformation in the left cerebellar hemisphere; experiment: Intraoperative NIR fluorescence imaging of tozuleristide during cavernous malformation resection; format: in vivo, human; settings: pediatric patient; 15 mg/m2 IV on the morning of surgery
Method: as §1, with “compounds and” for “imaging system and/or”, “a” for “an arteriovenous malformation or”, “An” for “The”, “system” for “system of the present invention”
The patient received 15 mg/m2 of a fluorescent conjugate comprising SEQ ID NO: 1 conjugated to an ICG (tozuleristide, also referred to herein as Compound 76) via IV injection on the morning of surgery and image collection. The imaging system head was attached to the Zeiss Pentero surgical microscope along with two eyepieces prior the start of surgery.
After the lesion was exposed, the imaging system was initialized and used continuously. The imaging system enabled the surgeon to view fluorescence and visible imaging together and simultaneously with the operating microscope. A microsurgical resection was performed through a left retroaricular craniotomy with frameless stereotactic navigation and intraoperative ultrasonography. A round mulberry appearing vascular lesion that contained areas of thrombosed vessels and firm calcifications was encountered. […] The lesion was removed. […]

[4] = system: vascular lesion in the right middle frontal gyrus; settings: general comparison statement in Example 14, no own test described; cited from earlier work

Compound	Surgeon-noted distinction between tumor and normal tissue with NIR fluorescence [1]	Background fluorescence in non-tumor or normal brain tissue ([1]; NIR fluorescence image)	Tozuleristide fluorescence in the exposed tumor ([1]; NIR fluorescence, in situ)	Time after injection during which diseased tissue can be highlighted ([2]; general statement in Example 14, fluorescence dependent on pathological tissue binding and uptake)	Fluorescence of surrounding tissue, normal brain tissue and normal vasculature [2]	Fluorescence of the abnormal vascular tissue / vascular lesion [2]	Fluorescence of the abnormal vascular tissue / vascular lesion ([2]; listed as Tozuleristide)	Fluorescence of the abnormal vascular tissue / vascular lesion ([2]; listed as toluzeristide)	Fluorescence of surrounding tissue, normal brain tissue and normal vasculature ([2]; listed as Tozuleristide)	Fluorescence of surrounding tissue, normal brain tissue and normal vasculature ([2]; listed as toluzeristide)	Fluorescence of the cavernous malformation lesion [3]	Fluorescence of the surrounding cerebellum [3]	Behaviour of ICG alone after injection (comparison statement) [4]
tozuleristide	very good distinction between tumor and normal tissue fluorescence	no discernable background fluorescence	observed in situ in the exposed tumor	up to 30 hours	non-fluorescent	indicative of the presence of tozuleristide in the vascular lesion	observed in situ in the exposed vascular lesion	fluoresced avidly	no discernable background fluorescence	no fluorescence	fluoresced avidly	did not fluoresce	–
CC1(C)C(/C=C/C=C/C=C/C=C2\N(CCCCS(=O)(=O)O)c3ccc4ccccc4c3C2(C)C)=[N+](CCCCS(=O)(=O)[O-])c2ccc3ccccc3c21 [ICG, indocyanine green]	–	–	–	–	–	–	–	–	–	–	–	–	transiently lights up blood vessels immediately after injection
